The record followed here is US8217029B2, “Oxazolidinone antibiotics” (Actelion Pharmaceuticals Ltd, priority 2007, dated 2012).

≈ marks a conversion by molar mass, not a printed value.

In the experiment the test system is S aureus A798. In words: Minimal inhibitory concentration (MIC), microdilution method in cation-adjusted Mueller-Hinton Broth following NCCLS guidelines. The settings on record: pH of test medium 7.2-7.3. Format: cell-based. The essentials:
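MICs (mg/l) came from NCCLS-guided microdilution, using cation-adjusted Mueller-Hinton medium adjusted to pH 7.2-7.3.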
A general note: Broth dilution looks for growth in wells or tubes with falling amounts of substance.
For the compound `COc1ccc2nccc(N3CC(CNC[C@@H]4CN(c5ccc(C)c(F)c5)C(=O)O4)C3)c2n1` [Example 154, (R)-3-(3-Fluoro-4-methyl-phenyl)-5-({[1-(6-methoxy-[1,5]naphthyridin-4-yl)-azetidin-3-ylmethyl]-amino}-methyl)-oxazolidin-2-one], it took 0.063 µg/mL (≈ 0.14 µM) to inhibit growth (MIC).

For the compound `COc1ccc2nccc(N3CC[C@H](NC[C@@H]4CN(c5ccc6c(c5)OCCO6)C(=O)O4)C3)c2n1` [Example 41, (R)-3-(2,3-Dihydro-benzo[1,4]dioxin-6-yl)-5-{[(S)-1-(6-methoxy-[1,5]naphthyridin-4-yl)-pyrrolidin-3-ylamino]-methyl}-oxazolidin-2-one], the minimum inhibitory concentration (MIC) is at most 0.031 µg/mL.

For the compound `COc1ccc2nccc(N3CC4C(C3)C4NC[C@@H]3CN(c4ccc5c(c4)NC(=O)CS5)C(=O)O3)c2n1` (stereo partly drawn) [Example 89, 6-((R)-5-{[(1α,5α,6α)-3-(6-Methoxy-[1,5]naphthyridin-4-yl)-3-aza-bicyclo[3.1.0]hex-6-ylamino]-methyl}-2-oxo-oxazolidin-3-yl)-4H-benzo[1,4]thiazin-3-one], the “MIC S aureus A798” value was “<=0.031 mg/l”.

`COc1ccc2nccc(N3C[C@H](NC[C@@H]4CN(c5ccc6c(c5)NC(=O)CS6)C(=O)O4)[C@@H](OC)C3)c2n1` [Example 182, 6-((R)-5-{[(3S,4S)-4-Methoxy-1-(6-methoxy-[1,5]naphthyridin-4-yl)-pyrrolidin-3-ylamino]-methyl}-2-oxo-oxazolidin-3-yl)-4H-benzo[1,4]thiazin-3-one] returned a minimal inhibitory concentration (MIC) of at most 0.031 µg/mL.

In the case of `COc1ccc2nccc(N3CC(CNC[C@H]4CN(c5ccc6c(c5)NC(=O)CS6)C(=O)O4)C3)c2n1` [Example 59, 6-[(S)-5-({[1-(6-Methoxy-[1,5]naphthyridin-4-yl)-azetidin-3-ylmethyl]-amino}-methyl)-2-oxo-oxazolidin-3-yl]-4H-benzo[1,4]thiazin-3-one], the MIC was at most 0.031 µg/mL.

`COc1ccc2nccc(N3CCN(C[C@@H]4CN(c5ccc(F)c(F)c5)C(=O)O4)CC3)c2n1` [Example 29, (R)-3-(3,4-Difluoro-phenyl)-5-[4-(6-methoxy-[1,5]naphthyridin-4-yl)-piperazin-1-ylmethyl]-oxazolidin-2-one] showed a minimal inhibitory concentration (MIC) of at most 0.031 µg/mL.

On to `COc1ccc2nccc(N3CC(N(CCO)C[C@@H]4CN(c5ccc6c(c5)NC(=O)CS6)C(=O)O4)C3)c2n1` [Example 128, 6-[(R)-5-({(2-Hydroxy-ethyl)-[1-(6-methoxy-[1,5]naphthyridin-4-yl)-azetidin-3-yl]-amino}-methyl)-2-oxo-oxazolidin-3-yl]-4H-benzo[1,4]thiazin-3-one], for which the MIC is at most 0.031 µg/mL.

Take `COc1ccc2nccc(N3CC(N(C)C[C@@H]4CN(c5ccc(OC(F)F)cc5)C(=O)O4)C3)c2n1` [Example 134, (R)-3-(4-Difluoromethoxy-phenyl)-5-({[1-(6-methoxy-[1,5]naphthyridin-4-yl)-azetidin-3-yl]-methyl-amino}-methyl)-oxazolidin-2-one]: the MIC was at most 0.031 µg/mL.

`COc1ccc2nccc(N3C[C@@H](O)[C@H](NC[C@@H]4CN(c5ccc6c(c5)NC(=O)CS6)C(=O)O4)C3)c2n1` (relative stereo) [Example 76, 6-((R)-5-{[(3R*,4R*)-4-Hydroxy-1-(6-methoxy-[1,5]naphthyridin-4-yl)-pyrrolidin-3-ylamino]-methyl}-2-oxo-oxazolidin-3-yl)-4H-benzo[1,4]thiazin-3-one]: the MIC is at most 0.031 µg/mL.

`COc1ccc(N2C[C@@H](CNC3CN(c4ccnc5ccc(OC)nc45)C3)OC2=O)cc1` [Example 174, (R)-5-{[1-(6-Methoxy-[1,5]naphthyridin-4-yl)-azetidin-3-ylamino]-methyl}-3-(4-methoxy-phenyl)-oxazolidin-2-one]: the MIC is at most 0.031 µg/mL.

In the case of `COc1ccc2nccc(N3CC[C@@H](NC[C@@H]4CN(c5ccc6c(c5)OCCO6)C(=O)O4)C3)c2n1` [Example 42, (R)-3-(2,3-Dihydro-benzo[1,4]dioxin-6-yl)-5-{[(R)-1-(6-methoxy-[1,5]naphthyridin-4-yl)-pyrrolidin-3-ylamino]-methyl}-oxazolidin-2-one], the MIC is at most 0.031 µg/mL.

On to `CCOc1ccc(N2C[C@@H](CNC3CN(c4ccnc5ccc(OC)nc45)C3)OC2=O)cc1` [Example 175, (R)-3-(4-Ethoxy-phenyl)-5-{[1-(6-methoxy-[1,5]naphthyridin-4-yl)-azetidin-3-ylamino]-methyl}-oxazolidin-2-one], for which the minimal inhibitory concentration (MIC) was at most 0.031 µg/mL.

Turning to `COc1ccc2nccc(N3C[C@@H]4C[C@H]3CN4C[C@@H]3CN(c4ccc5c(c4)NC(=O)CO5)C(=O)O3)c2n1` [Example 151, 6-{(R)-5-[(1S,4S)-5-(6-Methoxy-[1,5]naphthyridin-4-yl)-2,5-diaza-bicyclo[2.2.1]hept-2-ylmethyl]-2-oxo-oxazolidin-3-yl}-4H-benzo[1,4]oxazin-3-one], it took 0.063 µg/mL (≈ 0.125 µM) to inhibit growth (MIC).

With `COc1ccc2nccc(N3CC4C(C3)C4NC[C@@H]3CN(c4ccc(C)c(F)c4)C(=O)O3)c2n1` (stereo partly drawn) [Example 88, (R)-3-(3-Fluoro-4-methyl-phenyl)-5-{[(1a,5a,6a)-3-(6-methoxy-[1,5]naphthyridin-4-yl)-3-aza-bicyclo[3.1.0]hex-6-ylamino]-methyl}-oxazolidin-2-one], the “MIC S aureus A798” value is 0.125 µg/mL (≈ 0.27 µM).

In turn, `COc1ccc2nccc(N3CC(CNC(=O)[C@@H]4CN(c5ccc(C)c(F)c5)C(=O)O4)C3)c2n1` [Example 130, (S)-3-(3-Fluoro-4-methyl-phenyl)-2-oxo-oxazolidine-5-carboxylic acid [1-(6-methoxy-[1,5]naphthyridin-4-yl)-azetidin-3-ylmethyl]-amide] had an MIC of 0.25 µg/mL (≈ 0.537 µM).

In turn, `COc1ccc2nccc(N3CC[C@H](NC[C@@H]4CN(c5ccc6c(c5)NC(=O)CO6)C(=O)O4)C3)c2n1` [Example 69, 6-((R)-5-{[(S)-1-(6-Methoxy-[1,5]naphthyridin-4-yl)-pyrrolidin-3-ylamino]-methyl}-2-oxo-oxazolidin-3-yl)-4H-benzo[1,4]oxazin-3-one] gave a minimal inhibitory concentration (MIC) of at most 0.031 µg/mL.

In the case of `CCc1ccc(N2C[C@@H](CN(C)C3CN(c4ccnc5ccc(OC)nc45)C3)OC2=O)cc1` [Example 137, (R)-3-(4-Ethyl-phenyl)-5-({[1-(6-methoxy-[1,5]naphthyridin-4-yl)-azetidin-3-yl]-methyl-amino}-methyl)-oxazolidin-2-one], the MIC was at most 0.031 µg/mL.

With `COc1ccc2nccc(N3CC[C@@H](NCCC4CN(c5ccc6c(c5)NC(=O)CS6)C(=O)O4)C3)c2n1` (mixture of isomers) [Example 87, 6-((RS)-5-{2-[(R)-1-(6-Methoxy-[1,5]naphthyridin-4-yl)-pyrrolidin-3-ylamino]-ethyl}-2-oxo-oxazolidin-3-yl)-4H-benzo[1,4]thiazin-3-one], the MIC is at most 0.031 µg/mL.

With `COc1cccc(N2C[C@@H](CN3CCN(c4ccnc5ccc(OC)nc45)CC3)OC2=O)c1` [Example 24, (R)-5-[4-(6-Methoxy-[1,5]naphthyridin-4-yl)-piperazin-1-ylmethyl]-3-(3-methoxy-phenyl)-oxazolidin-2-one], the MIC is 0.25 µg/mL (≈ 0.556 µM).

`CCCc1ccc(N2C[C@@H](CN(C)C3CN(c4ccnc5ccc(OC)nc45)C3)OC2=O)cc1` [Example 139, (R)-5-({[1-(6-Methoxy-[1,5]naphthyridin-4-yl)-azetidin-3-yl]-methyl-amino}-methyl)-3-(4-propyl-phenyl)-oxazolidin-2-one] displayed a minimum inhibitory concentration (MIC) of at most 0.031 µg/mL.

As usually defined, the MIC is the lowest concentration that inhibits growth of the organism. Low readings indicate a more susceptible organism, high ones a less susceptible organism.
